Holding throughout (format): cell-based
Assay [1] deals with HaCaT human keratinocytes cell line. Briefly: Oris Cell Migration Assay, keratinocyte migration. Conditions: for AVG IF (Intensity of Fluorescence, proportional to the quantity of cells having migrated) / % activity/control: 24 hours; for AVG IF (Intensity of Fluorescence, proportional to the quantity of cells having migrated): DMEM 0% FCS; for % activity/control: in relation to the 0% FCS control. Here is the method: In order to evaluate the impact of sucrose octasulfate of magnesium on the cell migration of HaCaT keratinocyte cell lines, studies were carried out using the Oris Cell Migration Assay Kit (Platypus Technologies). This study was conducted in parallel with sucrose octasulfate of potassium and sucrose octasulfate of sodium for comparison.
The keratinocyte cell line used is the HaCaT human keratinocytes cell line, spontaneously immortalized. This line is frequently cited as a reference model in the literature.
The protocol used for the cell migration study is based on the use of a 96-well kit, Oris Cell Migration Assay (Platypus Technologies—TEBU), enabling the miniaturization and quantification of this cell process.
The principle of this test consists in studying cell migration toward the center of the well of the 96-well plate. It consists in placing a stopper in the wells, in order to create a detection zone 2 mm in diameter. Then the stoppers are removed once the cells are well adhered to the surrounding surface, thus allowing the cells to migrate toward the detection zone. Plates without stoppers and with active agents are incubated at 37° C. for 24 hours in DMEM 0% FCS. The quantity of cells located in the zone previously occupied by the stopper is then analyzed in order to evaluate cell migration. A mask is used to visualize and count only the cells located in this zone. For each condition, an average of 4 to 8 wells is prepared.
The products tested in this study are SOS-Mg obtained in example 1 at a concentration of 10 μM, SOS-K at 10 μM (sucrose octasulfate of potassium), SOS-Na at 10 μM (sucrose octasulfate of sodium) and EGF as positive control. A negative control is prepared in which no compound is added to the culture medium (control 0% FCS).
The results are quantified by means of the following formula:
[formula] • in IF (Intensity of Fluorescence, proportional to the quantity of cells having migrated). • in percentage of activity in relation to the 0% FCS control.

For another assay, the system named is FLG. The experiment in a line: mRNA expression in normal human keratinocytes (real-time PCR), FLG. The settings on record: 30 μM, 72 hours, NHK. As for the experimental part:
(§1) The keratinocyte cell line used is the primary human keratinocyte cell line or NHKs prepared from strips of skin from cosmetic surgery waste (breast reduction). The cells are grown in low-magnesium (0.1 mM) KSFM (Invitrogen) supplemented with 25 μg/ml bovine pituitary extract (BPE) and 1.5 ng/ml […] (EGF).
(§2) The products to be tested are incubated with keratinocytes for 72 hours. The cells are then recovered and an analysis of the expression of target genes involved in epidermal differentiation is carried out using Quantigene technology, used to quantify the expression of mRNA of interest.
(§3) A second study was carried out under the same conditions but by measuring the expression of a larger number of genes (64 targets involved in cell differentiation) by real-time PCR.
(§4) These inductions show the role of SOS-Mg in the induction of keratinocyte differentiation and thus of cicatrization (IVL, SPRR1A, SPRR1B and LOR), in moisturization (Padi1) as well as its antimicrobial properties (hBD2).
Background: Quantitative PCR measures a nucleic acid by following its amplification.

In another assay the test system is SPRR1B. Briefly: mRNA expression in normal human keratinocytes (real-time PCR), SPRR1B. Conditions: 30 μM, 72 hours, NHK. As for the experimental part:
as §1, §2, §3, §4

A further assay has as its system hBD2 (DEFB4). Briefly: mRNA expression in normal human keratinocytes (real-time PCR), hBD2. Conditions: 30 μM, 72 hours, NHK, FIG. 3. As for the experimental part:
FIG. 3 represents the relative quantity of hBD2 mRNA produced by keratinocytes treated for 72 hours with 30 μM sucrose octasulfate of magnesium (SOS-Mg), 30 μM sucrose octasulfate of sodium (SOS-Na) or 30 μM sucrose octasulfate of magnesium (SOS-Mg) in relation to the negative control.
as §1, §2, §3
(§5) These inductions show the role of SOS-Mg in the induction of keratinocyte differentiation and thus of cicatrization (IVL, SPRR1A, SPRR1B and LOR), in moisturization (Padi1) as well as its antimicrobial properties (hBD2). […]

The test system of another assay is LOR. The experiment in a line: mRNA expression in normal human keratinocytes (real-time PCR), loricrin. The settings on record: 30 μM, 72 hours, NHK, FIG. 1. As for the experimental part: FIG. 1 represents the relative quantity of loricrin mRNA produced by keratinocytes treated for 72 hours with 30 μM sucrose octasulfate of magnesium (SOS-Mg), 30 μM sucrose octasulfate of sodium (SOS-Na) or 30 μM sucrose octasulfate of magnesium (SOS-Mg) in relation to the negative control.
as §1, §2, §3, §5

The test system of another assay is SPRR1A. Briefly: mRNA expression in normal human keratinocytes (real-time PCR), SPRR1A. Conditions: 30 μM, 72 hours, NHK. As for the experimental part: as §1, §2, §3, §4
The test system of a further assay is IVL. Briefly: mRNA expression in normal human keratinocytes (real-time PCR), IVL. Conditions: 30 μM, 72 hours, NHK. As for the experimental part: as §1, §2, §3, §4
Another assay concerns Padi1. The experiment in a line: mRNA expression in normal human keratinocytes (real-time PCR), Padi1. Conditions: 30 μM, 72 hours, NHK, FIG. 2. Here is the method:
FIG. 2 represents the relative quantity of Padi1 mRNA produced by keratinocytes treated for 72 hours with 30 μM sucrose octasulfate of magnesium (SOS-Mg), 30 μM sucrose octasulfate of sodium (SOS-Na) or 30 μM sucrose octasulfate of magnesium (SOS-Mg) in relation to the negative control.
as §1, §2, §3, §5

The subject of another assay is DEFB103A. The experiment in a line: mRNA expression in normal human keratinocytes (Quantigene), DEFB103A. Details: dose or concentration left out as unconfirmed. The settings on record: CaCl2, positive control, 72 hours, NHK, in relation to the negative control. Here is the method:
(§6) The effect of sucrose octasulfate of magnesium and sucrose octasulfate of potassium and sodium on regulation of molecular targets involved in keratinocyte differentiation processes was evaluated. To that end, normal human keratinocytes (NHK) were brought together with the various products to be tested and the expression of various RNA coding proteins involved in the establishment of protein structures of the cornified envelope, but also in the synthesis of lipids or the expression of antimicrobial peptides, was measured.
(§7) The keratinocyte cell line used is the primary human keratinocyte cell line or NHKs prepared from strips of skin from cosmetic surgery waste (breast reduction). […]
as §2
(§8) The values obtained by Quantigene are normalized in relation to the geometric mean of 2 reference genes, POL2RA and HPRT. Relative quantity is calculated in relation to the control. Regulation of the expression of the gene of interest is taken into account from a RQ (relative quantity)≧1.9 (induction) or RQ[…] (inhibition). […]

The next assay concerns UGCG. The experiment in a line: mRNA expression in normal human keratinocytes (Quantigene), UGCG. Also on record: dose or concentration left out as unconfirmed. The settings on record: CaCl2, positive control, 72 hours, NHK, in relation to the negative control. As for the experimental part: as §6, §7, §2, §8
The subject of another assay is RNASE7. The experiment in a line: mRNA expression in normal human keratinocytes (Quantigene), RNASE7. Also on record: dose or concentration left out as unconfirmed. The settings on record: CaCl2, positive control, 72 hours, NHK, in relation to the negative control. As for the experimental part: as §6, §7, §2, §8
In a further assay the test system is CDSN. Briefly: mRNA expression in normal human keratinocytes (Quantigene), CDSN. Details: dose or concentration left out as unconfirmed. Conditions: positive control, 72 hours, NHK, in relation to the negative control. As for the experimental part: as §6, §7, §2, §8

The record followed here is US9562065B2, “Sucrose octasulfates of magnesium, preparation method thereof and pharmaceutical cosmetic uses of same” (PIERRE FABRE DERMO-COSMETIQUE, priority 2011, dated 2017).

Marks after values point to notes of the source that are not given here.

For the compound “EGF: epithelial growth factor (EGF), positive control of the migration test”, in assay [1] (EGF 33 ng, positive control, HaCaT), the “AVG IF (Intensity of Fluorescence, proportional to the quantity of cells having migrated)” value (“AVG IF” below) worked out at 16138 ± 1548. For the same compound, the “% activity/control” value in assay [1] (EGF 33 ng, positive control) is reported as 320*** %. In assay [1] (EGF at 33 ng/ml, positive control, HaCaT), the “keratinocyte migration (result in words)” value was “induced keratinocyte migration (and proliferation) in a very large and significant manner”.
Consider “sucrose octasulfate of magnesium [SOS-Mg]”, for which, in the assay with FLG, the “expression of FLG mRNA” value is “induced”. Also, in the assay with SPRR1B, the “expression of SPRR1B mRNA” value is recorded as “induced”. For the same compound, the “expression of hBD2 (DEFB4) mRNA” value in the assay with hBD2 (DEFB4) is “induced to a greater extent”. Besides, the “expression of LOR (loricrin) mRNA” value with LOR is recorded as “induced to a greater extent”. For the same compound, the “expression of SPRR1A mRNA” value with SPRR1A is listed as “induced”. Also, the “expression of IVL mRNA” value in the assay on IVL is on record as “induced”. For the same compound, the “expression of Padi1 mRNA” value in the assay on Padi1 was “induced to a greater extent”. Further, in [1] (10 μM, HaCaT), the “AVG IF” value is 7084 ± 662; the “keratinocyte migration (result in words)” value is recorded as “induced keratinocyte migration in a statistically significant manner”; the “migration relative to that induced by SOS-Na and SOS-K” value was 1.4 times. Moreover, the “% activity/control” value in [1] (10 μM) was 140* %.
Take `O=S(=O)([O-])OC[C@H]1O[C@@](COS(=O)(=O)[O-])(O[C@H]2O[C@H](COS(=O)(=O)[O-])[C@@H](OS(=O)(=O)[O-])[C@H](OS(=O)(=O)[O-])[C@H]2OS(=O)(=O)[O-])[C@@H](OS(=O)(=O)[O-])[C@@H]1OS(=O)(=O)[O-].[K+].[K+].[K+].[K+].[K+].[K+].[K+].[K+]` [SOS-K, sucrose octasulfate of potassium]: in assay [1] (10 μM, HaCaT), the “AVG IF” value is given as 5001 ± 835 and the “keratinocyte migration (result in words)” value is “do not induce keratinocyte migration”. Further, the “% activity/control” value in assay [1] (10 μM) worked out at 99%.
On to `O=S(=O)([O-])OC[C@H]1O[C@@](COS(=O)(=O)[O-])(O[C@H]2O[C@H](COS(=O)(=O)[O-])[C@@H](OS(=O)(=O)[O-])[C@H](OS(=O)(=O)[O-])[C@H]2OS(=O)(=O)[O-])[C@@H](OS(=O)(=O)[O-])[C@@H]1OS(=O)(=O)[O-].[Na+].[Na+].[Na+].[Na+].[Na+].[Na+].[Na+].[Na+]` [SOS-Na, sucrose octasulfate of sodium], for which, in assay [1] (10 μM, HaCaT), the “AVG IF” value is given as 4988 ± 965 and the “keratinocyte migration (result in words)” value is recorded as “do not induce keratinocyte migration”. Moreover, the “% activity/control” value in assay [1] (10 μM) came to 99%.
Regarding `[Ca+2].[Cl-].[Cl-]` [CaCl2], the entries for the “Relative quantities (RQ) of mRNA expression, DEFB103A” value in the assay on DEFB103A and in the assay with DEFB103A (listed as Calcium) were 18.7 and “induced”, respectively. Besides, the “Relative quantities (RQ) of mRNA expression, UGCG” value is recorded as 3.1 in the assay with UGCG and “induced” in the assay with UGCG (listed as Calcium). Moreover, the figures for the “Relative quantities (RQ) of mRNA expression, RNASE7” value with RNASE7 and in the assay with RNASE7 (listed as Calcium) were 4.5 and “induced”, respectively. Besides, the “Relative quantities (RQ) of mRNA expression, CDSN” value with CDSN is given as 1.3.
